The subject of data set [1] is Plasmodium falciparum. Briefly: Antimalarial activity against Plasmodium falciparum 3D7 infected in human erythrocytes assessed as growth inhibition after 48 hrs by SYBR Green 1 staining-based fluorescence assay. The format is functional, organism-based. The settings on record: 3D7, 48 h.
In data set [2] the test system is Plasmodium falciparum. Briefly: Antimalarial activity against drug resistant Plasmodium falciparum TM90C2B infected in human erythrocytes assessed as growth inhibition after 48 hrs by SYBR Green 1 staining-based fluorescence assay. The format is functional, organism-based.
The nature of data set [3]: Intrinsic clearance in human liver microsomes at 3 uM assessed per mg of protein up to 45 mins in presence of NADPH by LC-MS/MS analysis. Format: ADME. The settings on record: read-out: CLH. (In general: Liver microsomes are vesicles of endoplasmic reticulum, rich in cytochrome P450 enzymes.)
The nature of data set [4]: Kinetic solubility of the compound in phosphate buffer at pH 1 at 200 uM. Format: physicochemical. The settings on record: read-out: Kinetic_solubility.
Data set [5] in a line: Kinetic solubility of the compound in fixanal buffer at pH 7.4 at 200 uM. The settings on record: read-out: Kinetic_solubility. Format: physicochemical.
Data set [6] concerns Plasmodium falciparum. Kind of data set: Antimalarial activity against drug resistant Plasmodium falciparum W2 infected in human erythrocytes assessed as growth inhibition after 48 hrs by SYBR Green 1 staining-based fluorescence assay. The format is functional, organism-based. The settings on record: W2, 48 h.
The nature of data set [7]: Intrinsic clearance in rat hepatocytes at 3 uM assessed per 10^6 cells up to 45 mins […] by LC-MS/MS analysis. Format: ADME, cell-based, Hepatocyte. The settings on record: read-out: CLH.
The subject of data set [8] is cytochrome b-c1 complex. Kind of data set: Inhibition of cytochrome b-c1 complex bovine heart mitochondrial membranes assessed as reduction in cytochrome c reductase activity using decylubiquinol as substrate at 1 uM by UV-visible spectrophotometric analysis. Also on record: species or system Bos taurus. The settings on record: cattle, probe decylubiquinol.
Data set [9] concerns cytochrome b-c1 complex. Briefly: Inhibition of cytochrome b-c1 complex bovine heart mitochondrial membranes assessed as reduction in cytochrome c reductase activity using decylubiquinol as substrate at 100 uM by UV-visible spectrophotometric analysis. More on the design: species or system Bos taurus. The settings on record: cattle, probe decylubiquinol.

Values after ≈ are worked out from the molar mass of the structure shown.

In general, IC50 refers to the point on the concentration scale where inhibition reaches its midpoint. By inhibition is commonly meant the share of the control response that was lost under treatment.

In the case of `COc1ccc2c(=O)c(C)c(-c3ccc(-c4ccc(Cl)c(Cl)c4)nc3)[nH]c2c1`, the IC50 in the data set on Plasmodium falciparum [1] came out at 200 nM.

Regarding `COc1cccc2[nH]c(-c3ccc(-c4ccc(OC(F)(F)F)cc4)nc3)c(C)c(=O)c12`, in the data set with Plasmodium falciparum [1], the IC50 is above 1000 nM.

On to `Cc1c(-c2ccc(-c3ccc(OC(F)(F)F)cc3)nc2)[nH]c2ccccc2c1=O`, for which the IC50 in the data set on Plasmodium falciparum [2] is 156 nM; in the data set on Plasmodium falciparum [6], 48 nM. In addition, the microsomal CLint at 3 µM in data set [3] is 20.6 µL/min/mg. Also, the solubility kinetic at 200 µM in [4] is 3.2 µM (≈ 1.27 µg/mL); in [5] it was below 1 µM.

With `COc1ccc2c(=O)c(C)c(-c3cncc(-c4ccc(Cl)c(Cl)c4)c3)[nH]c2c1`, the microsomal CLint at 3 µM in [3] is 14 µL/min/mg. The hepatocyte CLint at 3 µM in [7] came to 4.9 µL/min/1e6 cells. Further, the 50% inhibitory concentration (IC50) with Plasmodium falciparum [1] was 18 nM. In addition, the inhibition at 1 µM in the data set on cytochrome b-c1 complex [8] turned out to be 20%. For the same compound, the solubility kinetic at 200 µM was 15 µM (≈ 6.17 µg/mL) in data set [4] and 14 µM (≈ 5.76 µg/mL) in data set [5]. For the same compound, the inhibition at 100 µM in the data set on cytochrome b-c1 complex [9] is 13%.

For `Cc1c(-c2ccc(-c3ccc(OC(F)(F)F)cc3)cn2)[nH]c2ccccc2c1=O`, the IC50 in the data set on Plasmodium falciparum [1] is above 1000 nM.

In the case of `Cc1c(-c2ccc(-c3ccc(OC(F)(F)F)cc3)nc2)[nH]c2ccc(O)cc2c1=O`, the half-maximal inhibitory concentration (IC50) in the data set with Plasmodium falciparum [1] amounted to 326 nM.

As for `Cc1c(-c2ccnc(-c3ccc(OC(F)(F)F)cc3)c2)[nH]c2ccccc2c1=O`, the microsomal CLint at 3 µM in data set [3] is 7.7 µL/min/mg. For the same compound, the hepatocyte CLint at 3 µM in data set [7] is 2.5 µL/min/1e6 cells. Moreover, the IC50 with Plasmodium falciparum [1] was 21 nM. Also, in the data set with cytochrome b-c1 complex [8], the inhibition at 1 µM amounted to 81%. Also, the solubility kinetic at 200 µM in data set [4] was determined as 79 µM (≈ 31.3 µg/mL); in data set [5], 2.1 µM (≈ 0.832 µg/mL). In addition, the inhibition at 100 µM with cytochrome b-c1 complex [9] is 52%.

As for `COc1ccc2c(=O)c(C)c(-c3cc(-c4ccc(OC(F)(F)F)cc4)ccn3)[nH]c2c1`, the IC50 with Plasmodium falciparum [1] worked out at 150 nM.

For `O=C1C(O)=C([C@H]2CC[C@H](c3ccc(Cl)cc3)CC2)C(=O)c2ccccc21` [ATOVAQUONE], the IC50 in the data set on Plasmodium falciparum [2] was determined as 9910 nM; with Plasmodium falciparum [6] it was 0.3 nM.

As for `O=c1c2c([nH]c3ccccc13)CN(Cc1ccc(OC(F)(F)F)cc1)C2`, the IC50 with Plasmodium falciparum [1] is 200 nM.

As to `COc1ccc2c(=O)c(C)c(-c3ccc(-c4ccc(OC(F)(F)F)cc4)cn3)[nH]c2c1`, in the data set with Plasmodium falciparum [1], the IC50 is above 1000 nM.

As for `COc1ccc2c(=O)c(C)c(-c3ccnc(-c4ccc(OC(F)(F)F)cc4)c3)[nH]c2c1`, the IC50 in the data set on Plasmodium falciparum [2] is 7 nM; in the data set with Plasmodium falciparum [1], 12 nM; in the data set on Plasmodium falciparum [6], 4.2 nM. Also, the inhibition at 1 µM in the data set with cytochrome b-c1 complex [8] was 85%. In addition, the solubility kinetic at 200 µM is 120 µM (≈ 51.2 µg/mL) in data set [4] and below 1 µM in data set [5]. Moreover, the inhibition at 100 µM in the data set on cytochrome b-c1 complex [9] is 63%.

For the compound `COc1ccc2[nH]c(-c3ccc(-c4ccc(OC(F)(F)F)cc4)nc3)c(C)c(=O)c2c1`, the 50% inhibitory concentration (IC50) in the data set on Plasmodium falciparum [1] is above 1000 nM.

Turning to `COc1ccc2c(=O)c(C)c(-c3cncc(-c4ccc(OC(F)(F)F)cc4)c3)[nH]c2c1`, the values for the IC50 in the data set with Plasmodium falciparum [2], with Plasmodium falciparum [1] and in the data set with Plasmodium falciparum [6] were 7.2 nM, 12 nM and 4 nM, respectively. Besides, the microsomal CLint at 3 µM in [3] was 25.9 µL/min/mg. In addition, in data set [7], the hepatocyte CLint at 3 µM was 1.2 µL/min/1e6 cells. For the same compound, in the data set with cytochrome b-c1 complex [8], the inhibition at 1 µM amounted to 81%. Moreover, the solubility kinetic at 200 µM in [4] was 7.8 µM (≈ 3.33 µg/mL); in [5], below 1 µM. In addition, in the data set on cytochrome b-c1 complex [9], the inhibition at 100 µM was 19%.

Consider `Cc1c(-c2cncc(-c3ccc(OC(F)(F)F)cc3)c2)[nH]c2ccccc2c1=O`, for which, in data set [3], the microsomal CLint at 3 µM amounted to 12.5 µL/min/mg. For the same compound, in data set [7], the hepatocyte CLint at 3 µM was determined as 1.8 µL/min/1e6 cells. Further, the IC50 in the data set on Plasmodium falciparum [1] was 41 nM. In the data set with cytochrome b-c1 complex [8], the inhibition at 1 µM was found to be 25%. The solubility kinetic at 200 µM in data set [4] was determined as 140 µM (≈ 55.5 µg/mL); in data set [5], 3.6 µM (≈ 1.43 µg/mL). The inhibition at 100 µM in the data set with cytochrome b-c1 complex [9] was 20%.

For `Cc1c(-c2ccc(-c3ccc(OC(F)(F)F)cc3)nc2)[nH]c2c(O)cccc2c1=O`, the IC50 with Plasmodium falciparum [1] is above 1000 nM.

On to `O=c1c2c([nH]c3ccccc13)CN(Cc1ccc(Cl)c(Cl)c1)C2`, for which, in the data set on Plasmodium falciparum [1], the IC50 is 70 nM.

Regarding `Cc1c(-c2cccc(-c3ccc(OC(F)(F)F)cc3)n2)[nH]c2ccccc2c1=O`, in the data set on Plasmodium falciparum [1], the IC50 worked out at 390 nM.

On to `COc1cccc2c(=O)c(C)c(-c3ccc(-c4ccc(OC(F)(F)F)cc4)nc3)[nH]c12`, for which the half-maximal inhibitory concentration (IC50) in the data set with Plasmodium falciparum [1] was above 1000 nM.

On to `Cc1c(-c2cncc(-c3ccc(Cl)c(Cl)c3)c2)[nH]c2ccccc2c1=O`, for which the microsomal CLint at 3 µM in data set [3] came to 5.6 µL/min/mg. Moreover, the hepatocyte CLint at 3 µM in [7] is 9.9 µL/min/1e6 cells. Moreover, the IC50 with Plasmodium falciparum [1] is 40 nM.

For the compound `COc1ccc2c(=O)c(C)c(-c3cccc(-c4ccc(OC(F)(F)F)cc4)n3)[nH]c2c1`, the half-maximal inhibitory concentration (IC50) in the data set on Plasmodium falciparum [1] was 149 nM.

In the case of `COc1ccc2c(=O)c(C)c(-c3ccc(-c4ccc(OC(F)(F)F)cc4)nc3)[nH]c2c1`, the IC50 with Plasmodium falciparum [1] was found to be 14 nM. Besides, the inhibition at 1 µM in the data set with cytochrome b-c1 complex [8] was 98%. Further, the solubility kinetic at 200 µM is 2.6 µM (≈ 1.11 µg/mL) in [4] and below 1 µM in data set [5]. The inhibition at 100 µM in the data set on cytochrome b-c1 complex [9] stood at 55%.

The values above are taken from ChEMBL document CHEMBL3739389, “2-Pyridylquinoloneantimalarials with improved antimalarial activity and physicochemical properties” (Medchemcomm, 2015).
